{"source": "patent US11299715B2", "about": "“Use of iNOS inhibitors to increase viral yield in culture” (priority 2013, dated 2022)", "key": {"[1]": {"test_system": "rHSV-1 d27-1 (d27-1) vector", "assay": "ATA-HSV protocol: rHSV-1 d27-1 vector yield in V27 cell supernatants", "format": "cell-based, HSV-1", "description": "The wtHSV-1 KOS strain and the ICP27-deficient derivatives of the wtHSV-1 KOS strain: vectors d27-1 (Rice and Knipe, J. Virol. (1990) 64:1704-1715), rHSV-rep2/cap2 and rHSV-EGFP (Kang et al., Gene Ther. (2009) 16:229-239) and their producer ICP27-complementing V27 cell line were obtained from AGTC (Alachua, Fla.). The wtHSV-1 MacIntyre strain, purchased from Advanced Biotechnologies Inc. (ABI, Columbia Md.) and wtHSV-1 KOS strain were propagated in Vero, 293 or HeLa cell lines. Infectious vector particles were harvested 72 hr postinfection by recovering culture supernatant. The titers of HSV-1 stocks in DNase resistant particles/ml (DRP/ml) were determined by Taqman assay. Viral genomes within crude culture medium were quantified via treatment in the presence of DNase I (50 U/ml final; Promega) at 37° C. for 60 min, followed by proteinase K (Invitrogen) digestion (1 U/ml) at 50° C. for 60 min, and then denatured at 95° C. for 30 min. Linearized plasmid pZero 195 UL36 (obtained from AGTC, Inc., Alachua, Fla.) was used to generate standard curves.\nATA (Sigma-A1895 Aurintricarboxylic acid practical grade, ≥85% (titration), powder) stock solution was generated as 500 μM concentration in 100 mM sodium bicarbonate water solution. ATA stock solution was further diluted in DMEM+/−10% fetal bovine serum (FBS, Hyclone, Waltham, Mass.) into concentration ranges of […] ATA (8.5-21 μgATA/ml). The HSV-1 infection at multiplicity of infection of 0.15 (MOI=0.15) (typically 6×10^5 cells in a 6-well plate) was performed in 40% (⅖ vol) of the total final media volume for 1-2 hrs and the remaining media (60% or ⅗ of the total final volume) was added during the dilution step. The cells were then incubated 72 hours and supernatant harvested to perform forming units per milliliter (PFU/ml) and DRP/ml titer assays.\nIn order to test whether ATA could increase the rHSV-1 d27-1 (d27-1) vector yield in V27 cells, ATA was applied to the media during the infection (Step 1) or dilution steps (Step 2) (FIG. 2A). The d27-1 infection at MOI=0.15 was performed in ⅖ of the final media volume and the remaining ⅗ of the media was added during dilution step.\nIn order to determine which concentrations and conditions for ATA addition have impact on HSV yields, the following experiments were conducted. ATA at varying concentrations was added to V27 cultures infected with the HSV-1 d27-1 vectors in either six-well plates (FIG. 2B) or T150 flasks (FIG. 2C) in two steps as follows. In Step 1 of the protocol, V27 cells were infected with 0.15 MOI of the rHSV vector in ⅖ of the final volume of DMEM with 10% FBS and 0-60 μM ATA concentrations. Cells were cultured for 1-2 hours at 37° C. to complete Step 1. In Step 2, the concentration of ATA was reduced to a range between 12-24 μM by the addition of ⅗ of final media volume. Cells were cultured for 70-74 hours at 37° C. and the supernatant harvested. Viral titers were expressed as Dnase Resistant Particles (DRP/ml) or Plaque Forming Units (pfu/ml) per ml and were determined as described above.\nIn this experiment, V27 cells were seeded into six well plates the day prior to infection at 6×10^5 cells/well. HSV 2× infection solution was prepared as follows: HSV-1 d27.1 stock was added to DMEM (no FBS) at 2× titer that the cells would be infected at final MOI 0.15. Several 2×ATA solution combinations were prepared containing either 100 μM or 40 μM ATA in DMEM and without FBS or with 20% FBS.\nHSV 2× infection solution was mixed equal volumes of either DMEM−/+20% FBS or desired 2×ATA solution−/+20% FBS, vortexed, and 1 ml of infectious inoculum per well was added in Step 1. If wells contained ATA in Step 1, the concentration was 50 μM and all wells were incubated for 1-2 hrs. In Step 2, additional 1.5 ml of DMEM combinations−/+40 μM ATA and −/+20% FBS were added. If wells contained ATA whether in Step 1 or Step 2, the final ATA concentration was 20 μM. […]"}, "rAAV-GFP vector": {"test_system": "rAAV-GFP vector", "assay": "rAAV production by rHSV-rep2/cap2 and rHSV-EGFP co-infection of 293 cells", "format": "cell-based, AAV", "protocol": "293 cells (2.5×10^6) were simultaneously co-infected with both rHSV-rep2/cap2 and rHSV-EGFP vectors as described by Kang et al., Gene Ther (2009) 16:229-239. At 2-4 hr post infection, infectious medium was exchanged with DMEM+10% FBS equivalent to double the preinfection culture volume. At the time of harvest, the cell pellet was frozen at −80° C. DRP titers were quantified by real-time polymerase chain reaction (qPCR) in a96-well block thermocycler (Applied Biosystems; 7500 Real Time PCR system). Crude samples were subjected to three cycles of freezing and thawing, then incubated in the presence of Benzonase (250 U/ml), 2 mM MgCl2, 1% final concentration protein grade Tween 80 (Calbiochem) and incubated at 37° C. for 60 min, followed by 0.25% Trypsin (Gibco) digestion at 50° C. for 60 min. Finally, treatment with DNase I (50 U/ml; Promega) at 37° C. for 30 min, and then denatured at 95° C. for 20 min. Linearized plasmidpDC67/+SV40 was used to generate standard curves. The primer-probe set was specific for the simian virus 40 (SV40) poly(A) sequence: rAAV-F: 5′-[…]-3′ (SEQ ID NO:4); rAAV-R: 5′-[…]-3′ (SEQ ID NO:5); rAAV-Probe: 5′ 6-FAM-[…]-TAMRA-3′ (SEQ ID NO:6).\nIn order to determine whether the presence of ATA during HSV production impacted the yield of rAAV virions produced using HSV vectors, the following experiment was performed showing rAAV titers affected by ATA residue present from rHSV-1 stocks produced in 293 cells (FIG. 5A). […] One-way ANOVA; Tukey's-test:*p<0.05; 20 μM ATA vs. No ATA; n=4 independent experiments.\nThis effect was not observed when the ATA concentrations were higher then 20 μM (FIG. 5B)."}, "[2]": {"conditions": "serum-free media, ATA at Step 2, 20 μM final"}, "[3]": {"conditions": "serum-free media, ATA starting at 3 μM at Step 1"}}}
{"compound": "O=C(O)C1=CC(=C(c2ccc(O)c(C(=O)O)c2)c2ccc(O)c(C(=O)O)c2)C=CC1=O", "note": "[ATA, 5-((3-carboxy-4-hydroxyphenyl)(3-carboxy-4-oxo-2,5-cyclohexadien-1-ylidene)methyl)-2-hydroxybenzoic acid]", "values": [{"measurement": "d27-1 titer in supernatant (PFU/ml)", "setting": "[1]; 50 μM ATA at infection step, 20 μM f.c., 72 h.p.i., control 1.4±0.2×10^7", "value": "1.2±0.3×10^8 PFU/ml"}, {"measurement": "d27-1 titer in supernatant (DRP/ml)", "setting": "[1]; 50 μM ATA at infection step, 20 μM f.c., 72 h.p.i., control 4.0±0.3×10^7", "value": "3.7±0.2×10^8 DRP/ml"}, {"measurement": "increase of d27-1 titers in supernatant", "setting": "[1]; 50 μM ATA at infection step, 20 μM f.c., harvest 72 h.p.i.", "value": "about 10 times"}, {"measurement": "Cytopathic effect (CPE) at the time of harvest", "setting": "[1]; 72 hpi, V27 monolayers, 100% CPE in the absence of ATA", "value": "20-60%"}, {"measurement": "HSV titers versus cultures without ATA", "setting": "[1]; ATA added in Step 1 or Step 2, six-well plates and T150 flasks, 10% FBS", "value": "significantly higher"}, {"measurement": "HSV-1 plaque formation or cell lysis in V27 cell monolayers", "setting": "[1]; ATA treatment", "value": "delayed"}, {"measurement": "DRP titer, ATA in serum-free media at dilution step (Step 2)", "setting": "[1]; [2]", "value": "reduced below control level"}, {"measurement": "PFU/ml titer, ATA in serum-free media at dilution step (Step 2)", "setting": "[1]; [2]", "value": "below detection"}, {"measurement": "DRP/ml titer, ATA in serum-free media at infection Step 1", "setting": "[1]; [3]", "value": "below the detection limit"}, {"measurement": "PFU/ml titer, ATA in serum-free media at infection Step 1", "setting": "[1]; [3]", "value": "below the detection limit"}, {"measurement": "d27-1 titers with ATA (DRP/ml)", "setting": "[1]; summary statement", "value": "≥ 4×10^8 DRP/ml"}, {"measurement": "d27-1 titers with ATA (PFU/ml)", "setting": "[1]; summary statement", "value": "at least 1×10^8 PFU/ml"}, {"measurement": "increase of d27-1 yields in V27 cells supernatants", "setting": "[1]; summary statement", "value": "3-5 times"}, {"measurement": "rAAV titer, ATA spiked into 293 cell media during co-infection", "setting": "rAAV-GFP vector; 10 μM ATA, 2 hrs co-infection step", "value": "increase"}, {"measurement": "rAAV titers using HSV stock prepared with 20 μM ATA", "setting": "rAAV-GFP vector; 20 μM ATA added during infection", "value": "slightly increased"}, {"measurement": "rAAV titer increase at higher spiked ATA concentrations", "setting": "rAAV-GFP vector; ATA higher than 20 μM spiked into 293 cell media", "value": "not observed"}, {"measurement": "influence of ATA in rHSV-1 stocks on rAAV yield", "setting": "rAAV-GFP vector; ATA present in rHSV-1 stocks", "value": "did not negatively influence"}, {"measurement": "increase of rAAV DRP/ml titer versus No ATA control", "setting": "rAAV-GFP vector; rHSV-rep2/cap2 stock prepared with 20 μM ATA (Step 1), about 3 μM ATA during rAAV production, n=4", "value": 1.3, "unit": "times"}, {"measurement": "rAAV titer with rHSV-rep2/cap2 stock prepared with 12 μM ATA", "setting": "rAAV-GFP vector; stock prepared with 12 μM ATA, n=4", "value": "No significant rAAV titer increase"}]}
